Results from PubChem BioAssay (NCI).
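Cells were grown in 96-well plates and exposed to each compound for 48 hours at five concentrations; endpoints were interpolated linearly between bracketing concentrations, or set to the highest concentration if not reached. GI50 is the concentration that inhibits growth by half. The concentration for full growth arrest is given as TGI.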

What was measured:
Assay in all cases: growth of human tumour cells (NCI), 48 h
SF-539 CNS = system: SF-539 CNS
T-47D breast = system: T-47D breast
BT-549 breast = system: BT-549 breast
HS 578T breast = system: HS 578T breast
NCI-H226 lung = system: NCI-H226 lung
NCI-H23 lung = system: NCI-H23 lung
SK-MEL-2 melanoma = system: SK-MEL-2 melanoma
SNB-75 CNS = system: SNB-75 CNS
ACHN renal = system: ACHN renal
NCI-H460 lung = system: NCI-H460 lung
SN12C renal = system: SN12C renal
SR leukemia = system: SR leukemia
UACC-62 melanoma = system: UACC-62 melanoma
UACC-257 melanoma = system: UACC-257 melanoma
M14 melanoma = system: M14 melanoma
UO-31 renal = system: UO-31 renal
MOLT-4 leukemia = system: MOLT-4 leukemia
COLO 205 colon = system: COLO 205 colon
K-562 leukemia = system: K-562 leukemia
HOP-92 NSCLC = system: HOP-92 NSCLC
NCI/ADR-RES ovarian = system: NCI/ADR-RES ovarian
NCI-H522 lung = system: NCI-H522 lung
HT29 colon = system: HT29 colon
786-0 renal = system: 786-0 renal
CAKI-1 renal = system: CAKI-1 renal
SK-MEL-28 melanoma = system: SK-MEL-28 melanoma
KM12 colon = system: KM12 colon
SK-OV-3 ovarian = system: SK-OV-3 ovarian
A549 NSCLC = system: A549 NSCLC
U251 CNS = system: U251 CNS
SK-MEL-5 melanoma = system: SK-MEL-5 melanoma
OVCAR-5 ovarian = system: OVCAR-5 ovarian
RXF 393 renal = system: RXF 393 renal
DU-145 prostate = system: DU-145 prostate
IGROV1 ovarian = system: IGROV1 ovarian
HCC-2998 colon = system: HCC-2998 colon
TK-10 renal = system: TK-10 renal
OVCAR-8 ovarian = system: OVCAR-8 ovarian
EKVX NSCLC = system: EKVX NSCLC
SF-268 CNS = system: SF-268 CNS
CCRF-CEM leukemia = system: CCRF-CEM leukemia
SNB-19 CNS = system: SNB-19 CNS
HL-60(TB) leukemia = system: HL-60(TB) leukemia
HOP-62 NSCLC = system: HOP-62 NSCLC
OVCAR-4 ovarian = system: OVCAR-4 ovarian
OVCAR-3 ovarian = system: OVCAR-3 ovarian
HCT-116 colon = system: HCT-116 colon
MCF7 breast = system: MCF7 breast
PC-3 prostate = system: PC-3 prostate
A498 renal = system: A498 renal
MDA-MB-435 = system: MDA-MB-435
RPMI-8226 leukemia = system: RPMI-8226 leukemia
MDA-MB-231 breast = system: MDA-MB-231 breast
SF-295 CNS = system: SF-295 CNS
LOX IMVI melanoma = system: LOX IMVI melanoma
SW-620 colon = system: SW-620 colon
HCT-15 colon = system: HCT-15 colon
MALME-3M melanoma = system: MALME-3M melanoma

Clc1ccc(/C=C/c2ccc3ccccc3n2)cc1
GI50 (SF-539 CNS): 428 nM | TGI (SF-539 CNS): 13.8 µM | GI50 (T-47D breast): 5.16 µM | TGI (T-47D breast): > 100 µM | GI50 (BT-549 breast): 3.16 µM | TGI (BT-549 breast): > 71.8 µM | GI50 (HS 578T breast): 617 nM | TGI (HS 578T breast): 10.5 µM | GI50 (NCI-H226 lung): 25 µM | TGI (NCI-H226 lung): > 100 µM | GI50 (NCI-H23 lung): 3.08 µM | TGI (NCI-H23 lung): > 100 µM | GI50 (SK-MEL-2 melanoma): 311 nM | TGI (SK-MEL-2 melanoma): 1240 nM | GI50 (SNB-75 CNS): 2630 nM | TGI (SNB-75 CNS): > 67.1 µM | GI50 (ACHN renal): 4.82 µM | TGI (ACHN renal): > 100 µM | GI50 (NCI-H460 lung): 1200 nM | TGI (NCI-H460 lung): 15.7 µM | GI50 (SN12C renal): 2060 nM | TGI (SN12C renal): > 100 µM | GI50 (SR leukemia): 443 nM | TGI (SR leukemia): 4.12 µM | GI50 (UACC-62 melanoma): 1470 nM | TGI (UACC-62 melanoma): > 100 µM | GI50 (UACC-257 melanoma): 1830 nM | TGI (UACC-257 melanoma): > 100 µM | GI50 (M14 melanoma): 298 nM | TGI (M14 melanoma): 1010 nM | GI50 (UO-31 renal): 4.68 µM | TGI (UO-31 renal): > 100 µM | GI50 (MOLT-4 leukemia): 3.01 µM | TGI (MOLT-4 leukemia): > 100 µM | GI50 (COLO 205 colon): 1460 nM | TGI (COLO 205 colon): 6.73 µM | GI50 (K-562 leukemia): 439 nM | TGI (K-562 leukemia): > 100 µM | GI50 (HOP-92 NSCLC): 2820 nM | TGI (HOP-92 NSCLC): > 29.9 µM | GI50 (NCI/ADR-RES ovarian): 6.27 µM | TGI (NCI/ADR-RES ovarian): 29.4 µM | GI50 (NCI-H522 lung): 255 nM | TGI (NCI-H522 lung): 763 nM | GI50 (HT29 colon): 2620 nM | TGI (HT29 colon): 8.8 µM | GI50 (786-0 renal): 6.33 µM | TGI (786-0 renal): > 100 µM | GI50 (CAKI-1 renal): 2290 nM | TGI (CAKI-1 renal): > 57.9 µM | GI50 (SK-MEL-28 melanoma): 3.18 µM | TGI (SK-MEL-28 melanoma): > 100 µM | GI50 (KM12 colon): 1420 nM | TGI (KM12 colon): 20.6 µM | GI50 (SK-OV-3 ovarian): 519 nM | TGI (SK-OV-3 ovarian): > 21 µM | GI50 (A549 NSCLC): 1750 nM | TGI (A549 NSCLC): > 100 µM | GI50 (U251 CNS): 441 nM | TGI (U251 CNS): > 100 µM | GI50 (SK-MEL-5 melanoma): 551 nM | TGI (SK-MEL-5 melanoma): > 100 µM | GI50 (OVCAR-5 ovarian): 4.36 µM | TGI (OVCAR-5 ovarian): > 100 µM | GI50 (RXF 393 renal): 648 nM | TGI (RXF 393 renal): > 74.7 µM | GI50 (DU-145 prostate): 2230 nM | TGI (DU-145 prostate): 5.41 µM | GI50 (IGROV1 ovarian): 716 nM | TGI (IGROV1 ovarian): > 80.8 µM | GI50 (HCC-2998 colon): 968 nM | TGI (HCC-2998 colon): 8.41 µM | GI50 (TK-10 renal): 5.24 µM | TGI (TK-10 renal): > 100 µM | GI50 (OVCAR-8 ovarian): 1060 nM | TGI (OVCAR-8 ovarian): > 100 µM | GI50 (EKVX NSCLC): 2790 nM | TGI (EKVX NSCLC): > 100 µM | GI50 (SF-268 CNS): 641 nM | TGI (SF-268 CNS): > 88.3 µM | GI50 (CCRF-CEM leukemia): 508 nM | TGI (CCRF-CEM leukemia): > 100 µM | GI50 (SNB-19 CNS): 1560 nM | TGI (SNB-19 CNS): > 100 µM | GI50 (HL-60(TB) leukemia): 268 nM | TGI (HL-60(TB) leukemia): 828 nM | GI50 (HOP-62 NSCLC): > 100 µM | TGI (HOP-62 NSCLC): > 100 µM | GI50 (OVCAR-4 ovarian): > 69.8 µM | TGI (OVCAR-4 ovarian): > 100 µM | GI50 (OVCAR-3 ovarian): 917 nM | TGI (OVCAR-3 ovarian): 6.73 µM | GI50 (HCT-116 colon): 399 nM | TGI (HCT-116 colon): > 100 µM | GI50 (MCF7 breast): 467 nM | TGI (MCF7 breast): > 100 µM | GI50 (PC-3 prostate): 1740 nM | TGI (PC-3 prostate): > 100 µM | GI50 (A498 renal): 306 nM | TGI (A498 renal): > 100 µM | GI50 (MDA-MB-435): 226 nM | TGI (MDA-MB-435): 531 nM | GI50 (RPMI-8226 leukemia): 482 nM | TGI (RPMI-8226 leukemia): 18.6 µM | GI50 (MDA-MB-231 breast): 2300 nM | TGI (MDA-MB-231 breast): > 100 µM | GI50 (SF-295 CNS): 1200 nM | TGI (SF-295 CNS): 6.8 µM | GI50 (LOX IMVI melanoma): 2510 nM | TGI (LOX IMVI melanoma): > 100 µM | GI50 (SW-620 colon): 553 nM | TGI (SW-620 colon): > 100 µM | GI50 (HCT-15 colon): 2080 nM | TGI (HCT-15 colon): > 100 µM | GI50 (MALME-3M melanoma): 934 nM | TGI (MALME-3M melanoma): 71.8 µM
